The text below walks through data of patent US20130101684A1, “Compounds, Compositions, And Methods For Reducing Or Eliminating Bitter Taste” (Chromocell Corporation, priority 2010, published 2013).

Holding throughout (assay type): in vivo, humans
The subject of test [1] is bitter taste of an aqueous solution of KCl. As to the kind of experiment: Sip and spit taste test of aqueous KCl test solutions, bitterness rated 0-15 against KCl solution standards. Conditions: aqueous KCl 4.85 g/L, 1% EtOH, human panel, vs KCl solution standard, dash = at none of the tested conc. The method, then: Edible KCl solution compositions (“KCl test solutions”) were prepared by first dissolving varying amounts of the test compounds in an amount of ethanol or water (depending on the solubility of the compound) to create a 5 mg/mL stock compound solution. An amount of this stock compound solution is then added to an aqueous KCl solution. Enough EtOH is then added to the resulting stock compound/KCl solution so that the final KCl test solution contains 1% EtOH. KCl solution standards were similarly prepared by dissolving various amounts of KCl in water and ethanol without adding any test compound. […] The effect of the test compounds on the perception of the bitter taste of an aqueous solution of KCl in humans was evaluated using a “sip and Spit” test as follows. A set of KCl solutions standards was developed and each standard solution was assigned a bitterness taste score of 0-15 (corresponding to aqueous KCl concentrations of 0 mM-120 mM). Panelists were trained to recognize these standards. In addition, before each day of testing, panelists were tested to see if they could determine differences in taste between the standard solutions, if a panelist was unable to recognize a change in KCl concentration, they were excluded from the panel for that day. In a blind taste test, panelists were asked to compare the bitter taste of a small quantity (e.g. 8 ml) of each of the KCl Test Solutions to the taste of a KCl solution standard, without swallowing (see, e.g., Table 1). Specifically, panelists were asked to rate the bitterness of each KCl Test Solution on a scale of 0-15 using the same scale developed for the KCl solution standards. Each sample was tested in 2-4 discrete taste test experiments. Panelists were asked to rinse with water, eat a cracker, and wait approximately 10 minutes between samples.

For test [2], the system named is bitter taste of KCl foodstuff slurries. As to the kind of experiment: Two-alternative forced choice (2AFC) sip and spit test of KCl turkey foodstuff slurries. Conditions: turkey slurry with KCl 1.6%, 1% EtOH, 2AFC vs KCl slurry standard, dash = at none of the tested conc.; for minimal effective concentration: Homo sapiens. The method, then: Edible KCl food compositions (“KCl test foodstuff slurries”) were prepared as follows. Dehydrated, salt-free turkey powder was weighed and mixed with various amounts of KCl and/or NaCl and then solubilized with boiling water to create a homogenized solubilized turkey slurry. Varying amounts of the test compounds were dissolved in an amount of ethanol or water (depending on the solubility of the compound) to create a 5 mg/mL stock compound solution. An amount of this stock compound solution was then added to the turkey slurry. Enough EtOH is then added to the resulting stock compound/turkey slurry so that the slurry contains 1% EtOH. The slurry was again homogenized by boiling and mixing and allowed to cool to yield the final KCl test foodstuff slurry for taste testing. KCl foodstuff slurry standards were similarly prepared without any test compound. […] The effect of the test compounds on the perception of the bitter taste of KCl foodstuff slurries in humans was evaluated using a two-alternative-forced-choice “sip and spit” test as follows. In a blind taste test, panelists received two portions of turkey slurry—one portion being the KCl foodstuff slurry standard and the other being one of the KCl test foodstuff slurries (each prepared as described in Example 5). The panelists tasted each of the portions by sipping and spitting. Each sample was tested in 2-4 discrete taste test experiments. Panelists were asked to rinse with water, eat a cracker, and wait about 10 minutes between samples. In each case, the panelists were asked to compare the bitter taste of the two turkey samples to each other (i.e. panelists were asked to indicate which sample was less bitter).

Test [3] deals with bitter taste of an aqueous solution of potassium lactate. As to the kind of experiment: Sip and spit taste test of aqueous potassium lactate test solutions. Conditions: aqueous potassium lactate (KLac) 41 g/L, 1% EtOH, human panel, dash = at none of the tested conc. The method, then:
A set of KCl solutions standards was developed and each standard solution was assigned a bitterness taste score of 0-15 (corresponding to aqueous KCl concentrations of 0 mM-120 mM). Panelists were trained to recognize these standards. In addition, before each day of testing, panelists were tested to see if they could determine differences in taste between the standard solutions, if a panelist was unable to recognize a change in KCl concentration, they were excluded from the panel for that day. In a blind taste test, panelists were asked to compare the bitter taste of a small quantity (e.g. 8 ml) of each of the KCl Test Solutions to the taste of a KCl solution standard, without swallowing (see, e.g., Table 1). Specifically, panelists were asked to rate the bitterness of each KCl Test Solution on a scale of 0-15 using the same scale developed for the KCl solution standards. Each sample was tested in 2-4 discrete taste test experiments. Panelists were asked to rinse with water, eat a cracker, and wait approximately 10 minutes between samples. Edible potassium lactate solution compositions (“potassium lactate test solutions”) were prepared by first dissolving varying amounts of the test compounds in an amount of ethanol or water (depending on the solubility of the compound) to create a 5 mg/mL stock compound solution. An amount of this stock compound solution is then added to an aqueous potassium lactate solution. Enough EtOH is then added to the resulting stock compound/potassium lactate solution so that the final potassium lactate test solution contains 1% EtOH. Potassium lactate solution standards were similarly prepared by dissolving various amounts of potassium lactate in water and ethanol without adding any test compound. […] The effect of the test compounds on the perception of the bitter taste of an aqueous solution of potassium lactate in humans was evaluated using the “sip and spit” test described in Example 2.

Where [4] appears, read: read-out: Conc. Where Decrease in Bitter Taste Discerned and p ≦ 0.1.
[5] abbreviates: read-out: Conc. Where Decrease in Bitter Taste Was Discerned.
Where [6] appears, read: read-out: Conc. at Which At Least 50% of Panelist Discerned Decrease in Bitter Taste.
[7] abbreviates: read-out: Conc. at Which At Least 50% of Panelist Discerned Decrease in Bitter Taste and p ≦ 0.1.

Like-named read-outs stand apart in the source and are kept apart here.

On to `CCn1ccc(C(=O)Nc2cc(OC)c(OC)cc2C(=O)OC)n1` [Compound 35], for which the minimal effective concentration in test [1] (setting [4]) is 1 µg/mL; in test [1] (setting [5]), 1 µg/mL; in test [2] (setting [6]), 10 µg/mL.

Regarding `COc1cc(/C=N/c2ccccc2C)ccc1O` [Compound 2], the minimal effective concentration in test [1] (setting [4]) turned out to be 1 µg/mL; in test [2] (setting [6]), 10 µg/mL.

On to `COC(=O)c1ccccc1NC(=O)c1c(Cl)cnn1C` [Compound 27], for which the minimal effective concentration in test [2] (setting [6]) amounted to 30 µg/mL.

For `COc1ccccc1CNc1cc(C)ccc1OC` [Compound 19], the minimal effective concentration in test [1] (setting [4]) came to 1 µg/mL; in test [1] (setting [5]), 1 µg/mL; in test [2] (setting [7]) it was 10 µg/mL.

Regarding `COc1ccc(NC(=O)CCOc2cccc(C)c2)cc1` [Compound 52], the “Conc. Where Decrease in Bitter Taste Discerned and p ≦ 0.1” value in test [1] is on record as 10 ppm; in test [3], 30 ppm. In addition, in test [2], the “Conc. at Which At Least 50% of Panelist Discerned Decrease in Bitter Taste and p ≦ 0.1” value is reported as 10 ppm.

In the case of `CCOc1cc(CNc2cccc(Cl)c2C)ccc1OC` [Compound 6], the minimal effective concentration in test [1] (setting [5]) amounted to 1 µg/mL.

With `COc1cccc(CNc2cc(C)ccc2C)c1OC` [Compound 15], the minimal effective concentration in test [1] (setting [4]), in test [2] (setting [6]) and in test [2] (setting [7]) was 10 µg/mL throughout.

As to `COc1ccc(CNc2ccc(Br)cc2C)cc1OC` [Compound 8], in test [1] (setting [5]), the minimal effective concentration turned out to be 1 µg/mL.

As for `CCn1ncc(Cl)c1C(=O)Nc1cc(Cl)ccc1Cl` [Compound 28], in test [2], the “Conc. at Which At Least 50% of Panelist Discerned Decrease in Bitter Taste” value was found to be 10 ppm.

For `COc1cccc(CNc2cccc(C)c2)c1OC` [Compound 5], in test [1] (setting [5]), the minimal effective concentration was found to be 10 µg/mL.

As for `CC(=O)Oc1ccc(C2Nc3c(C(=O)O)cccc3C3C=CCC32)cc1` (centres unmarked) [Compound 39], the minimal effective concentration in test [2] (setting [7]) was 10 µg/mL.

Consider `CCOc1cc(CNc2cc(C)ccc2C)ccc1OC` [Compound 12], for which the minimal effective concentration in test [1] (setting [4]) and in test [2] (setting [6]) was 10 µg/mL in each case.

Consider `CCOc1ccc(CNc2ccc(C)cc2C)cc1OC` [Compound 17], for which the “Conc. Where Decrease in Bitter Taste Was Discerned” value in test [1] and in test [3] was 1 ppm in each case.

Consider `COC(=O)c1cccc2c1NC(c1ccc(Cl)cc1)C1CC=CC21` (centres unmarked) [Compound 42], for which the minimal effective concentration in test [2] (setting [6]) came out at 1 µg/mL.

For `CCCC(=O)Nc1ccc(C)c(Cl)c1` [Compound 50], in test [1] (setting [5]), the minimal effective concentration was found to be 1 µg/mL.

`COc1cc(CO)ccc1OCc1ccccc1C` [Compound 1]: the minimal effective concentration in test [2] (setting [6]) worked out at 1 µg/mL.

For `Cn1ncc(Cl)c1C(=O)Nc1ccccc1C(N)=O` [Compound 33], the minimal effective concentration in test [1] (setting [5]) was determined as 1 µg/mL.

As for `CCOc1cc(CNc2ccccc2SC)ccc1OC` [Compound 4], in test [1] (setting [4]), the minimal effective concentration came to 10 µg/mL.

Take `Cc1nc2c(C)cccc2c(O)c1CN1CCN(c2ccccc2)CC1` [Compound 48]: the minimal effective concentration in test [1] (setting [4]) turned out to be 1 µg/mL; in test [3] (setting [4]) it was 1 µg/mL; in test [3] (setting [5]), 1 µg/mL; in test [2] (setting [6]), 10 µg/mL.

For the compound `COc1cc(CNc2cccc(C)c2C)ccc1OCc1ccccc1` [Compound 22], in test [1] (setting [4]), the minimal effective concentration came to 1 µg/mL.

With `CCn1ccc(C(=O)Nc2ccccc2C(=O)OC)n1` [Compound 36], the minimal effective concentration in test [1] (setting [4]) and in test [2] (setting [6]) was 10 µg/mL throughout.

On to `CCn1ncc(Cl)c1C(=O)Nc1cccc(Cl)c1Cl` [Compound 29], for which the “Conc. Where Decrease in Bitter Taste Discerned and p ≦ 0.1” value in test [1] is on record as 10 ppm. In addition, in test [3], the “Conc. Where Decrease in Bitter Taste Was Discerned” value is on record as 5 ppm. For the same compound, in test [2], the “Conc. at Which At Least 50% of Panelist Discerned Decrease in Bitter Taste” value was 1 ppm; the “Conc. at Which At Least 50% of Panelist Discerned Decrease in Bitter Taste and p ≦ 0.1” value is listed as 1 ppm.

On to `COc1ccc(OC)c(CNc2cc(C)ccc2C)c1` [Compound 7], for which, in test [1], the “Conc. Where Decrease in Bitter Taste Discerned and p ≦ 0.1” value is 1 ppm; the “Conc. Where Decrease in Bitter Taste Was Discerned” value came to 1 ppm. The “Conc. at Which At Least 50% of Panelist Discerned Decrease in Bitter Taste” value in test [2] is 1 ppm.

With `COc1ccc(NCc2ccccc2C)cc1OC` [Compound 20], the minimal effective concentration was determined as 1 µg/mL in test [1] (setting [4]) and 5 µg/mL in test [3] (setting [4]).

For the compound `CCOc1ccc(CNc2ccccc2C)cc1OC` [Compound 3], the minimal effective concentration stood at 2 µg/mL in test [1] (setting [4]), 2 µg/mL in test [1] (setting [5]) and 1 µg/mL in test [3] (setting [4]).

In the case of `CCOc1cc(CNc2ccccc2)ccc1OC` [Compound 10], the “Conc. Where Decrease in Bitter Taste Discerned and p ≦ 0.1” value in test [1] stood at 1 ppm.

As for `Cc1nc2c(C)ccc(C)c2c(O)c1CN1CCN(c2ccccc2)CC1` [Compound 47], the minimal effective concentration in test [2] (setting [6]) and in test [2] (setting [7]) was 10 µg/mL in each case.

With `Cc1ccc2nc3c(F)c(N4CCOCC4)c(F)c(F)c3c(C)c2c1` [Compound 46], the minimal effective concentration turned out to be 1 µg/mL in test [1] (setting [4]), 30 µg/mL in test [3] (setting [5]) and 1 µg/mL in test [2] (setting [6]).

For `Cc1c2ccccc2nc2c(F)c(N3CCN(C)CC3)c(F)c(F)c12` [Compound 44], the minimal effective concentration in test [1] (setting [4]), in test [1] (setting [5]), in test [3] (setting [4]) and in test [2] (setting [6]) was 10 µg/mL each time.

Consider `COC(=O)c1ccc(C)c(NC(=O)c2c(Cl)cnn2C)c1` [Compound 31], for which, in test [2], the “Conc. at Which At Least 50% of Panelist Discerned Decrease in Bitter Taste” value is listed as 1 ppm.

With `Cc1ccc(NC(=O)CCOc2ccccc2)c(C)c1` [Compound 54], the minimal effective concentration in test [2] (setting [6]) is 1 µg/mL.

For the compound `Cc1c2ccccc2nc2c(F)c(N3CCCC3)c(F)c(F)c12` [Compound 45], the minimal effective concentration is 0.1 µg/mL in test [1] (setting [4]) and 1 µg/mL in test [2] (setting [6]).

On to `O=C(O)c1cc(Br)cc2c1NC(c1ccc(Cl)cc1)C1CC=CC21` (centres unmarked) [Compound 43], for which, in test [1] (setting [5]), the minimal effective concentration is 1 µg/mL.

For the compound `COc1ccc(CNc2cc(C)ccc2C)cc1OC` [Compound 14], the “Conc. Where Decrease in Bitter Taste Discerned and p ≦ 0.1” value in test [1] worked out at 1 ppm. Moreover, in test [3], the “Conc. Where Decrease in Bitter Taste Was Discerned” value amounted to 5 ppm.
